According to PMC4752739, “Functional structure and antimicrobial activity of persulcatusin, an antimicrobial peptide from the hard tick Ixodes persulcatus” (Parasites & Vectors, 2016):
Where a SMILES comes first, the peptide text is derived from it. Bridges are numbered along the chain shown (N, C = ends).

Experiments:
[1] = tested on: MRSA; assay: Short-time killing assay, MRSA; assay type: cell-based, Staphylococcus aureus; settings: 1 h at 37 °C
Experimental: (§1) We selected 3 strains each of MSSA and MRSA used in the growth inhibition test. Unlike the growth inhibition test described above, an additional growth inhibition test was conducted using small test tubes. Each mixture of bacteria and peptide solution was incubated for 1 h at 37 °C. After the incubation, 100 μL aliquots were removed from the tubes and inoculated on TS agar plates. The plates were incubated overnight at 37 °C, after which colonies were counted. The same control was prepared as in the growth inhibition test described above. The data were then converted and expressed as a percentage (sample per control).

[2] = tested on: bovine fetal fibroblasts (BFFs-NCC1); assay: Effect on mammalian cell growth, fibroblasts; assay type: cell-based; settings: 50 μg/mL, 24 h or 48 h, trypan blue staining, automatic cell counter; triplicate
Experimental: (§2) In this study, we used bovine fetal fibroblasts (BFFs-NCC1) and bovine fetal colon epithelial cells (BFCEs-K4DT), which were maintained in the Laboratory of Animal Breeding and Genetics, Tohoku University Graduate School of Agricultural Science. The BFFs-NCC1 and BFCEs-K4DT were cultured in a cell culture dish and wrapped 12-well plates. The nutrient medium of each cell was Dulbecco’s modified Eagle’s medium (DMEM; Nacalai Tesque, Kyoto, Japan or Mediatech, Inc, Manassas, VA, USA) containing 10 % fetal bovine serum (Invitrogen, Carlsbad, CA, USA) and a 1 % antibiotic-antimycotic mixed stock solution (Nacalai Tesque). Then each cell was seeded into 12-well plates at 1 × 10^4 cell/well and 1 × 10^5 cell/well. After overnight incubation, the nutrient mediums were changed to DMEM with IP (0, 5, 10, 50 μg/mL), and cells were incubated for 24 h or 48 h (BFCEs-K4DT only 48 h) at 37 °C. Then, these were collected and measured using a trypan blue staining method, with an EVE™ Automatic cell counter (NanoEnTeK, Seoul, Korea). For BFCEs-K4DT, the morphology of untreated control (IP 0 μg/mL) and treated cell (IP 50 μg/mL) was observed.

[3] = tested on: MSSA; assay: Short-time killing assay, MSSA; assay type: cell-based, Staphylococcus aureus; settings: 1 h at 37 °C; for Susceptibility in short-time killing assay: colony count, % of control, triplicate
Experimental: as §1

[4] = tested on: MRSA clinical strains; assay: Growth inhibition test (MIC), MRSA; assay type: cell-based, Staphylococcus aureus; settings: all 9 clinical isolates of MRSA
Experimental: (§3) In the growth inhibition test, we used 9 clinical strains of methicillin-susceptible S. aureus (MSSA) and 9 clinical strains of MRSA from patients in Jichi Medical University Hospital, using these strains in past report. The bacteria were grown in Trypto Soya (TS; Nissui, Tokyo, Japan) broth for 18–19 h at 37 °C.
(§4) The optical density at 660 nm (OD660) of pre-cultured bacteria was measured using an Ubest-35 (JASCO Corporation, Tokyo, Japan). The adjustment for an OD660 of 0.5 was conducted by adding TS broth. The bacteria were diluted to a final concentration of 1–5 × 10^4 colony forming units (CFUs) /mL with TS broth, after which 50 μL of bacterial suspension and 50 μL of peptide solution were mixed together in a 96-well plate. The peptide solution was prepared by two-fold dilution in TS broth, while the IP solution was prepared to final peptide concentrations of 40, 20, 10, 5, 2.5, 1.25, 0.625, 0.313, 0.157, and 0.079 μg/mL. Each mixture of bacteria and peptide solution was incubated at 37 °C. The OD660 of the cell suspension was measured after 20–24 h incubation by using a Synergy™ HT (BioTek, Winooski, VT, USA). A control was prepared by mixing 50 μL of bacterial suspension, 40 μL of TS broth, and 10 μL of HBSS. The minimal inhibitory concentration (MIC) of the peptides was defined as the lowest concentration of peptide that reduced growth by >90 %.

[5] = tested on: BFFs-NCC1; assay: Neutral comet assay, fibroblasts; assay type: cell-based, bovine; settings: neutral conditions
Experimental: (§5) We prepared BFFs-NCC1 and BFCEs-K4DT treated or untreated with IP 50 μg/mL for 48 h as above experiment. These cells were harvested by centrifugation (800 g, 3 min) and washed with sterile Dulbecco’s Phosphate Buffered Saline (DPBS; GIBCO). To generate positive control for comet tails, a part of each cell is untreated with IP treated 25 μM KMnO4, and all samples placed for 20 min at 4 °C. The comet assay was performed under neutral conditions following the Trevigen protocol. Each cell at 1 × 10^5 cell/mL was combined with molten low-melting agarose at a ratio of 1 : 10 (vol /vol) and immediately pipetted 50 μL onto Comet slides. Slides were stored in the dark for 30 min at 4 °C before immersing in lysis solution overnight. The slides were immersed in freshly prepared neutral electrophoresis buffer (dissolved Tris base and sodium acetate in distilled water, pH 9.0) for 30 min at 4 °C. Gel electrophoresis was performed at 1 volt per cm (measured electrode to electrode) for 45 min in neutral electrophoresis buffer. The comet slides were immersed in DNA precipitation solution (7.5 M ammonium acetate containing 95 % ethanol) for 30 min at room temperature and then in 70 % ethanol for 30 min at room temperature. […] The slides were observed by fluorescence microscopy FSX100 (Olympus, Tokyo, Japan).

[6] = tested on: methicillin-susceptible S. aureus (MSSA) clinical strains; assay: Growth inhibition test (MIC), MSSA; assay type: cell-based, Staphylococcus aureus; settings: all 9 clinical isolates of MSSA
Experimental: as §3, §4

[7] = tested on: bovine fetal colon epithelial cells (BFCEs-K4DT); assay: Effect on mammalian cell growth and morphology, colon epithelial cells; assay type: cell-based; settings: 50 μg/mL, 48 h
Experimental: as §2

[8] = tested on: BFCEs-K4DT; assay: Neutral comet assay, colon epithelial cells; assay type: cell-based, bovine; settings: neutral conditions
Experimental: as §5

[9] = tested on: MRSA; settings: cited from earlier work
From the text: Host cytotoxicity of AMPs is a major limitation in their application as antimicrobial drugs. […] Not only that, but DNA damage was not detected in each cell treated with IP in neutral comet assay (Fig. 6). […] Moreover, in the hemolytic assay, we observed minimal hem ... || Treating MRSA infection is challenging owing to the remarkable ability of S. aureus to develop resistance to multiple antibiotics, thus limiting the number of viable therapeutic options. New anti-MRSA drugs called DAP were developed recently, but DAP-resistant bacteria have already been reported. Therefore, there is an urgent need to develop novel antimicrobials with unique mechanisms of action to combat MRSA, one of which is AMP [4]. It has been reported that tick AMP derived from Ornithodoros moubata, with an amino acid sequence similar to that of OMBAC (91 %) (Table 2) ...

[10] = cited from earlier work
From the text: Host cytotoxicity of AMPs is a major limitation in their application as antimicrobial drugs. […] Not only that, but DNA damage was not detected in each cell treated with IP in neutral comet assay (Fig. 6). […] Moreover, in the hemolytic assay, we observed minimal hem ...

[11] = positive control, 25 μM, 20 min at 4 °C

CC[C@H](C)[C@@H]1NC(=O)[C@H](CO)NC(=O)[C@H](CCCNC(=N)N)NC(=O)[C@@H]2CSSC[C@@H](C(=O)N[C@@H](Cc3ccc(O)cc3)C(=O)N[C@@H](CO)C(=O)N[C@@H](CCCNC(=N)N)C(=O)O)NC(=O)[C@H]([C@@H](C)O)NC(=O)[C@@H]3CSSC[C@H](NC(=O)[C@H](C)NC(=O)CNC(=O)[C@H](CCC(N)=O)NC(=O)[C@H](CC(N)=O)NC(=O)[C@H](Cc4ccccc4)NC(=O)[C@@H]4CCCN4C(=O)[C@@H](NC(=O)CNC(=O)[C@H](Cc4ccccc4)NC(=O)CN)CSSC[C@H](NC(=O)[C@H](Cc4ccc(O)cc4)NC(=O)CNC(=O)CNC(=O)[C@H](CCCNC(=N)N)NC(=O)[C@H](CCCNC(=N)N)NC(=O)CNC1=O)C(=O)N[C@@H](C)C(=O)NCC(=O)N[C@@H](CC(C)C)C(=O)N[C@@H](Cc1ccccc1)C(=O)N[C@@H](CCCCN)C(=O)N[C@@H](CCC(N)=O)C(=O)N[C@@H]([C@@H](C)O)C(=O)N3)C(=O)N[C@@H](Cc1c[nH]cn1)C(=O)N[C@@H](CCCNC(=N)N)C(=O)N[C@@H](Cc1c[nH]cn1)C(=O)N2 [IP, persulcatusin] (H-GFGCPFNQGACHRHCRSIGRRGGYCAGLFKQTCTCYSR-OH; disulfide 4-25, 11-33, 15-35 (inferred); N-terminus and C-terminus assumed)
Bactericidal activity within 1 h ([1]; MRSA): dose-dependent bactericidal activity | Susceptibility in short-time killing assay ([1]; all MRSA strains (MR-1, 2, 3), colony count, % of control, triplicate): susceptible | Number of cells after treatment [2]: no significant differences | Bactericidal activity within 1 h ([3]; MSSA): dose-dependent bactericidal activity | Susceptibility in short-time killing assay ([3]; strain MS-3): susceptible | Susceptibility in short-time killing assay ([3]; strains MS-1 and MS-2): relatively resistant | MIC at which growth of all 9 clinical isolates was inhibited [4]: 2.5 µg/mL | DNA damage (comet tails) ([5]; 50 μg/mL for 48 h): no comet tails | MIC at which growth of all 9 clinical isolates was inhibited [6]: 1.25 µg/mL | Cell morphology after treatment [7]: no morphological change | Number of cells after treatment ([7]; trypan blue staining, automatic cell counter, triplicate): no significant differences | DNA damage (comet tails) ([8]; 50 μg/mL for 48 h): no comet tails

GYGCPFNQYQCHSHCSGIRGYKGGYCKGTFKQTCKCY [(No use), 91 % similar to OMBAC]
MIC against MRSA [9]: low MIC

melittin
Hemolytic activity [10]: hemolytic activity | Antimicrobial activity against MRSA [9]: antimicrobial activity against MRSA

[K+].[O]=[Mn](=[O])(=[O])[O-] [KMnO4, reference compound]
DNA damage (comet tails) [5, 11]: some comet tails | DNA damage (comet tails) [8, 11]: some comet tails
